pKd: −log10 of the molar value. Read-outs that look alike come from different tables or passages of the source.
Legend:
HXYN2 [1] = biological target: T1, HXYN2 (Humicola insolens, UniProt P55334); experiment: Effect of phenolic compounds on HXYN2 activity (DNS xylanase assay); assay type: biochemical, Humicola grisea var. thermoidea; conditions: for activating effect on HXYN2 activity: after 0 and 24 h of incubation
T1 construct: made in house; host or cells: Pichia pastoris GS115 (vector pHIL-D2), purified from culture supernatant
T1 sequence (P55334 20-227): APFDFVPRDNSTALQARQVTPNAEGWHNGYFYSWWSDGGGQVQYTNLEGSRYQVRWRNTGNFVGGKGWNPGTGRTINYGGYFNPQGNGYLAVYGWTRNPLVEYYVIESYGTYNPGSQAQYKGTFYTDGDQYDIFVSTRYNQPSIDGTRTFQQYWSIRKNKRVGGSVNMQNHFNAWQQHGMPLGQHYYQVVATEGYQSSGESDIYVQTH

HXYN2 [2] = biological target: T1, HXYN2; experiment: Isothermal titration calorimetry of HXYN2 with FA; assay type: binding, Humicola grisea var. thermoidea
Experimental: An initial spacing setting of 500 s and an initial injection of 2 µL were employed. The following 12 injections of 5 µL were performed with an interval spacing of 600 s. The final 16 injections comprised 10 µL, with an interval spacing of 600 s.
The heat released after each injection was calculated from the raw data by integration of the peaks after subtraction of the baseline. The binding isotherms were fitted to different models using the software ORIGIN v7 (OriginLab, Northampton, MA, USA) provided by MicroCal. The best fit was determined using only two parameters, namely the binding constant (K) and enthalpy (H) on each site, following selction of the total number of sites. […] Changes in Gibbs free energy (ΔG) were calculated by Eq. (3):3 ΔG=-RTlnKa=ΔH-TΔS

HXYN2 [3] = biological target: T1, HXYN2; experiment: Fluorescence quenching of HXYN2 by FA; assay type: binding, Humicola grisea var. thermoidea; conditions: range, acidic to basic pH
Experimental: HXYN2 in complex with FA was investigated by fluorescence quenching as a function of pH. Trp and Trp-Tyr emission measurements were performed at 25 °C, in triplicate, after excitation at 295 nm and 275 nm, respectively. Protein fluorescence emission was recorded in the range of 300 to 450 nm. A path length quartz cuvette of 1 cm and excitation and emission slit width of 5 nm were employed. Data intervals of 1 nm, gain medium, a response time of 2 s, and a scanning speed of 50 nm/min were used with two averaged spectra accumulations. Fluorescence quenching of 0.43 µM HXYN2 with 0 to 23.68 µM FA in 95% ethanol and 0.05 M of sodium acetate buffer at pH 4.0 and 0.05 M of Tris–HCl at pH 7.0 and pH 9.0 was performed using a Jasco ATS-443 Automatic titration (Jasco Analytical Instrument, Tokyo, Japan). The fluorescence intensity background and dilution were corrected. The Stern–Volmer linear regression (Eq. 4) of the relative […] of fluorescence intensity at 334 nm (F/F0) versus FA concentration was used to describe the fluorescence quenching of Trp accessible to the quencher[52]:4 F0/F=1+Kq∗τ0Q=1+KSVQ where F and F0 are the fluorescence intensities at 334 nm, in the presence and absence of FA, respectively, Q is the concentration of the quencher, and Ksv is the Stern–Volmer constant. […]

HXYN2 [4] = experiment: CD thermal unfolding of HXYN2 in the presence of FA; design: species or system Humicola grisea var. thermoidea; conditions: pH 6.0, FA 60 µM; 63.5 °C without FA
Experimental: Thermostability assays of HXYN2 were performed at pH 4.0, 6.0, 7.0 and 9.0 at 218 nm, corresponding to the structured region of β-sheet, with temperature ranging from 25 to 95 °C and data collection of 0.2 °C/min. In addition, the CD spectra were recorded at a step size of 0.2 nm at intervals of 10 °C using the same parameters described above. Thermal denaturation curves were plotted considering the molar ellipticity values (θ) versus temperature. The unfolded status of the protein (Fu) was calculated by Eq. (6):6 Fu=yN-y/yN-yU where, yN and yU represent the values of y (into molar ellipticity) characteristic of the folded and unfolded states, respectively. The normalized unfolding curves were adjusted using the Boltzmann equation and the Origin 8.1 software (OriginLab Corporation, Northampton, MA, USA) from which the melting temperature (Tm) was estimated.
The effect of FA on the secondary structure content of HXYN2 was also investigated by CD. Assays were performed with protein at concentration of 0.15 mg/mL in 5 mM Bis–Tris pH 6.0 and FA at concentration of 60 µM. A quartz cuvette of 0.05 cm path length was used to record the Far-UV CD spectra in the range from 260 to 190 nm at 25 °C. Thermostability assays of HXYN2 in the presence of FA at pH 6.0 were also performed, using the same parameters described above.

HXYN2 [5] = tested on: HXYN2
[6] = tested on: GH10 xylanase from Penicillium chrysogenum; design: method as in PMID 30654038; conditions: oat spelt xylan as a substrate; cited from earlier work
[7] = tested on: GH11 xylanase from Aspergillus tamarii; conditions: birchwood xylan as a substrate; cited from earlier work
[8] = tested on: fungal cellulases and β-glucosidase; design: method as in PMID 22112771; conditions: cited from earlier work

## O=C(O)c1ccc(O)cc1 [4-hydroxybenzoic acid]
HXYN2 [1]; 1 mg/mL
  activating effect on HXYN2 activity: 20–75%

## COc1cc(/C=C/C(=O)O)ccc1O [FA, 3-(4-hydroxy-3-methoxy-phenyl-prop-2-enoic)]
HXYN2 [1]; 1 mg/mL, 0 and 24 h of incubation, beechwood xylan
  increase in enzymatic activity of HXYN2 in comparison to the control: 60–75%
HXYN2 [1]; 24 h, read-out: activating effect on HXYN2, after 24 h of incubation
  activation at 1000 µg/mL: ~75%
HXYN2 [1]; read-out: activating effect on HXYN2 activity, 1 mg/mL, after 0 and 24 h of incubation
  activation at 1000 µg/mL: 20 to 75%
HXYN2 [1]; read-out: increase in enzymatic activity of HXYN2 in comparison to the control, 1 mg/mL, 0 and 24 h of incubation, beechwood xylan
  activation at 1000 µg/mL: 75%
HXYN2 [2]; Kd, binding sites 2 and 4
  pKd: ~5.60
HXYN2 [2]; binding site 1, pH 6.0, 298 °K
  K (binding constant): 14.70 10^6 M^-1
HXYN2 [2]; binding sites 2 and 4
  binding constant: ~ 0.4 × 10^6 M^−1
HXYN2 [2]; dissociation constant (Kd), range over four sites
  pKd: 5.63 to 7.17
HXYN2 [2]; range over four sites
  Gibbs free energy: −5.5 to −10.0 kcal/mol
HXYN2 [3]
  bimolecular quenching constant, Kq: 3.2e+11 to 6.5e+11 M⁻¹ s⁻¹
HXYN2 [4]
  Tm of HXYN2 in the presence of FA: 54.1 °C
HXYN2 [5]; FA 0.25 mg/mL
  Vmax: 56.71 ± 1.11 µmol/min
  kcat: 2.363 s⁻¹
HXYN2 [5]; FA 0.5 mg/mL
  Vmax: 117.21 ± 1.26 µmol/min
  kcat: 4.8837 s⁻¹
HXYN2 [5]; FA 1 mg/mL
  Vmax: 167.22 ± 8.12 µmol/min
  kcat: 6.9678 s⁻¹

## O=C(O)c1cc(O)c(O)c(O)c1 [gallic acid]
HXYN2 [1]; 1 mg/mL
  activating effect on HXYN2 activity: 20–75%

## O=C(O)/C=C/c1ccc(O)cc1 [p-coumaric acid]
HXYN2 [1]; 1 mg/mL
  activating effect on HXYN2 activity: 20–75%

## COc1cc(C=O)cc(OC)c1O [syringaldehyde]
HXYN2 [1]; 1 mg/mL
  activating effect on HXYN2 activity: 20–75%

## O=C(O)/C=C/c1ccccc1 [trans-cinnamic acid]
HXYN2 [1]; 1 mg/mL
  activating effect on HXYN2 activity: 20–75%

## COc1cc(C=O)ccc1O [vanillin]
HXYN2 [1]; 1 mg/mL
  activating effect on HXYN2 activity: 20–75%

## tannic acid
HXYN2 [1]; 1 mg/mL, pre-incubation 0 h
  reduction in HXYN2 activity: 26%
HXYN2 [1]; 1 mg/mL, pre-incubation 24 h
  reduction in HXYN2 activity: 59%
HXYN2 [1]; after 24 h of incubation
  deactivating effect on HXYN2: ~59%
[6]
  inhibitory effect: 17%
[7]
  increase in the activity: 12%
[8]
  inhibition: up to 80%

Source: article PMC9259647 (Scientific Reports, 2022)
